Three compounds from patent publication US20170321282A1, “IMPROVED TREATMENTS OF CANCER RESISTANT TO TAXOIDS” (INSTITUT GUSTAVE ROUSSY, priority 2014, published 2017) can be followed below.

The subject of assay [1] is SHISA3 expression in IGR-CaP1 tumors. Nature of the assay: SHISA3 mRNA expression by quantitative PCR in docetaxel-sensitive xenograft tumors. Type of assay: in vivo, nude athymic mice. Conditions: docetaxel vs vehicle. An excerpt: (§1) FIG. 1: Expression of SHISA3 in docetaxel-resistant prostate cancer cells and in other cancers A. Real-time qRT-PCR showing the inhibition of SHISA3 gene expression in docetaxel-resistant IGR-CaP1-R and PC3-R cells. B. Whole cell extracts of parental and drug-resistant cells were subjected to immunoblotting with antibodies specific for SHISA3 or β-actin (loading control). Arrows indicate specific bands corresponding to SHISA3, star indicates a non-specific band. C. […] D-E. SHISA3 mRNA was assessed by determining ΔCt in normal tissues and in several solid tumors. Results were normalized to the universal RNA included in each panel. In D, out of all the tested tissues for SHISA3 expression, only tissues with the highest expression were shown. In E, the bars represent the mean. P value was derived from the two-tailed Student's t test. F. Subcellular localization after transfection of SHISA3-Flag-GFP in HEK cells. Cells were analyzed by confocal microscopy. GFP stained the transfected cells, SHISA3 was labeled with anti-SHISA3 antibody (red) and nucleus was stained with Dapi. […] Secondary antibodies were used as followed: Alexa-568 for SHISA3 and Alexa-647 for Calnexin and GM130. G. SHISA3 mRNA expression was assessed in vivo on nude athymic mice models. […] SHISA3 expression has been obtained by quantitative PCR and normalized by its expression in a control sample of Universal RNA. […]

For assay [2], the system named is SHISA3 expression in IGR-CaP1-R25 tumors. Nature of the assay: SHISA3 mRNA expression by quantitative PCR in docetaxel-resistant xenograft tumors. Type of assay: in vivo, nude athymic mice. As to conditions: docetaxel vs vehicle.
Source text: as §1

The next assay relates to parental IGR-CaP1 cells. Nature of the assay: Colony formation (clonogenicity) assay, parental cells. As to conditions: 25 μM LY2157299 alone, 72 h pretreatment, stained 2 weeks later. Type of assay: cell-based, human. As for the experimental part: (§2) Colony formation assay. Cells were pretreated with 25 μM LY2157299 or vehicle for 72 hours. Then, cells were treated with Docetaxel and/or 25 μM LY2157299, control cells were treated with vehicle. Docetaxel was used at 12 nM in parental IGR-CaP1 and 100 nM in resistant IGR-CaP1-R100. Cells were stained with Crystal Violet 2 weeks later. Data are represented as mean±SD. […] Representative cell colonies obtained in each condition is shown.
(§3) IGR-CaP1 and IGR-CaP1-R cells were plated in 6 well plates for 24 hours. Cells were pre-treated with 25 μM LY2157299 or vehicle for 72 hours, and then co-treated with LY2157299 and docetaxel (12 nM for parental cells, 100 nM for resistant cells). After 2 weeks, clones were methanol fixed and stained using Crystal violet (sigma). Clones were counted using ImageJ software.

Assay [3] relates to resistant IGR-CaP1-R100 cells. Nature of the assay: Colony formation (clonogenicity) assay, docetaxel-resistant cells. As to conditions: 25 μM LY2157299 alone, 72 h pretreatment, stained 2 weeks later. Type of assay: cell-based, human. As for the experimental part:
as §2, §3

Assay [4] concerns parental IGR-CaP1 and PC3 cells. Nature of the assay: EMT induction by TGFβ1, immunoblot of SHISA3 and EMT markers. Type of assay: cell-based, human. As to conditions: 10 ng/ml TGFβ1, 5 days. The text has this: A. Schematic structure of SHISA3 and SHISA3-Flag sharing a signal peptide (black box), an amino-terminal CRD (blue box), a predicted transmembrane segment (TM), and a carboxy-terminal proline-rich region (Grey box). The position of the FLAG tag (red box) is indicated. B. SHISA3 and endogenous TGFβR2 interaction. Cells extracts from IGR-CaP1, PC3 and HEK cells transfected with SHISA3-Flag were immunoprecipitated with anti-TGFβR2, anti-EGFR, anti-Flag antibodies or IgG as control and analyzed by immunoblot using anti-TGFβR2, anti-EGFR and anti-SHISA3 antibodies. Input represents 10% of the IP. C. Co-localization of SHISA3 and TGFβR2 in cytoplasmic granules and speckles at the membrane. Subcellular localizations of SHISA3 and TGFβR2 were analyzed by confocal microscopy after co-transfection of SHISA3-Flag and HA-TGFβR2 in HEK cells using anti-SHISA3 and anti-TGFβR2 primary antibodies, and Alexa-568- and Alexa-647-conjugated secondary antibodies respectively. Nuclei were labeled with Dapi. Overlapped fluorescent signals (yellow) indicated co-localized proteins. D. SHISA3 and EMT markers expression 5 days after cell treatment with TGFβ1. […] Quantification of bands relative to beta actin is shown.
2,5.10^4 IGR-CaP1 cells and 5.10^4 PC3 cells were plated in 6-well plates for 24 hours then transiently transfected with 10 nM synthetic siRNA targeting SHISA3 gene (Stealth RNAi™, siSHISA3-94: HSS152694, siSHISA3-95: HSS152695, and siSHISA3-96: HSS152696) using lipofectamine RNAiMax (Invitrogen) or treated with 10 ng/ml TGFβ1. After 36 hours, a second treatment was performed in order to maintain EMT induction over 5 days. Negative controls were obtained by treating cells with siRNA negative controls (siNT) (Invitrogen) or TGFβ1 vehicle. Whole cell extracts were prepared in RIPA buffer complemented with proteases inhibitors (Roche) and phosphatase inhibitors (Sigma).
Fifty μg of lysates were used for Western-Blot probed with specific antibodies: SHISA3 (Abgent), E-cadherin (BD Biosciences, clone 36), N-Cadherin (BD Biosciences, Clone 32), β-catenin (Santa Cruz, clone 12F7), Vimentin (BD Pharmingen, clone RV202), Occludin (Life Technologies, Clone OC-3F10), Plakoglobin (Sigma-Aldrich, Clone 15F11), Snail (Cell Signaling, Clone C15D3), ZEB1 (Cell Signaling, D80D), EGFR (Cell Signaling, Clone D38B1), TGFβR2 (Santa Cruz, Clone E-6), Ubiquitin (Santa Cruz, Clone P4D1), Flag (Sigma, M2). β-actin (Sigma-Aldrich, Clone AC-15) was used as a loading control. Immunoblot analyses were performed using the enhanced chemoluminescence-based detection kit (Pierce).
For orientation: Immunoblotting shows a protein as a band on a membrane.

With `CC(=O)O[C@@]12CO[C@@H]1C[C@H](O)[C@@]1(C)C(=O)[C@H](O)C3=C(C)[C@@H](OC(=O)[C@H](O)[C@@H](NC(=O)OC(C)(C)C)c4ccccc4)C[C@@](O)([C@@H](OC(=O)c4ccccc4)[C@H]21)C3(C)C` [docetaxel], the results for the “SHISA3 gene expression in tumors” value in assay [1] and in assay [2] were “strong decrease” and “did not affect its expression”, respectively.

In the case of `Cc1cccc(-c2nn3c(c2-c2ccnc4ccc(C(N)=O)cc24)CCC3)n1` [LY2157299], the “survival of parental cells (colony formation)” value with parental IGR-CaP1 cells was “did not affect the survival”. Further, the “survival of resistant cells (colony formation)” value in assay [3] was “did not affect the survival”.

For the compound TGFβ: TGFβ1 purchased from R&D Systems, in assay [4], the CDH1 expression result is on record as “decrease”, the CDH2 expression entry is given as “increase” and the VIM expression entry is listed as “increase”. In assay [4] (vs control cells), the SHISA3 expression entry was “decrease”.
